In one assay the test system is circulating leukocytes. Briefly: In Vivo Model for Leukocytosis. The note with it: bled 1-1.5 h after administration. Further details: species or system Balb/c mice. The source says:
In Vivo Model for Leukocytosis
Leukocytosis is the increase in circulating white blood cells (leukocytes). This can be brought about by preventing leukocyte binding to counter-receptor adhesion molecules expressed on high endothelial venules. This cell adhesion occurs between immunoglobulin superfamily molecules and integrins. Relevant examples of these paired interactions include […] Adhesion Molecule-1 and AlphaL Beta2 integrin, Vascular Cell Adhesion Molecule-1 and α4β1 integrin, and Mucosal Addressin Cell Adhesion Molecule-1 and α4β7 integrin, respectively.
In this model, a compound that antagonizes these leukocyte-endothelial interactions will cause an increase in circulating leukocytes, defined as leukocytosis, as measured at 1-1.5 h post-administration. This leukocytosis is indicative that normal lymphocyte or leukocyte emigration from the peripheral circulation was prevented. Similar emigration of cells out of the circulation into inflamed tissues is responsible for the progression and maintainance of the inflammatory state. Leukocytosis is an indication that lymphocyte and leukocyte extravasation is prevented, and is predictive of general anti-inflammatory activity.
One week prior to being tested, 7-10 week old female Balb/c mice, n=8 per group, were bled and randomized according to leukocyte counts. One week later, the mice were adminstered test compound orally or subcutaneously and then bled 1-1.5 h after drug administration, approximately 1 h after the peak blood concentration of the compound occurred. Whole blood, 250-350 microliters, was collected from each mouse into potassium-EDTA serum collection tubes (Becton-Dickenson) and mixed to prevent clotting.
Cell counts and differential counts on the whole blood preparation were performed using an Advia 120 Hematology System (Bayer Diagnostics). Cell counts as total leukocytes and as total lympohcytes were made and compared to counts made from mice dosed with vehicle only. Data were reported as percent of vehicle control for lymphocyte counts and total leukocyte counts.
Statistical analyses were performed using ANOVA with Dunnet's multiple comparison test.

The next assay concerns DSS induced colitis. The assay is described as follows: Dextran Sulfate Sodium (DSS) Induced Colitis. Format: in vivo, Balb/c female mice and C57Black/6 mice. The source says: In Vivo Model for Colitis: Dextran Sulfate Sodium (DSS) Induced Colitis Inflammatory bowel diseases such as ulcerative colitis and Crohn's disease are characterized by diminished intestinal barrier function, apparent inflammatory damage that may include erosive loss of intestinal mucosa, and inflammatory infiltrates in the mucosa and submucosa. […] Among the many possible chemicals used are dextran sulfate sodium (DSS) and trinitrobenzene sulfonic acid (TNBS). The dextran sulfate sodium model of experimental colitis is characterized by a shrinkage of the colon's length, macrosopic inflammatory damage, diarrhea, a discontinuous pattern of mucosal epithelial damage in the distal colon with infiltration of inflammatory cells that include macrophages and neutrophils into the mucosa and submucosa (Blumberg, R. S., Saubermann, L. J., and Strober, W. Animal models of mucosal inflammation and their relation to human inflammatory bowel disease. Current Opinion in Immunology, 11: 648-656, 1999; […]., and Nakaya, R. A novel method of induction of reliable experimental acute and chronic colitis in mice. […] Cooper, […]., and […]. Clinicopathologic study of dextran sulfate sodium experimental murine colitis. Lab Invest., 69: 238-249, 1993; […]., Bajaj-Elliott, M., MacDonald, […]., and Buchler, M. W. Characterization of acute murine dextran sodium sulphate colitis: Cytokine profile and dose dependency. Digestion, 62: 240-248, 2000; […]., Husband, A. J., and Doe, W. F. The inflammatory infiltrate in the acute stage of the dextran sulphate sodium induced colitis: B cell response differs depending on the percentage of DSS used to induce it. BMC Clinical Pathology, 1: 3-13, 2001; and Diaz-Granados, Howe, K., Lu, J, and […]. Dextran sulfate sodium-induced colonic histopathology, but not altered epithelial ion transport, is reduced by inhibition of phosphodiesterase activity. Amer. J. Pathology, 156: 2169-2177, 2000). Balb/c female mice and […]/6 mice were used in these studies. […] When […]/6 mice were used, a solution of tap water containing 4% DSS was used. During the ensuing 7-day period, test animals were administered a preparation of an experimental compound. This material may be administered orally or intraperitoneally or subcutaneously, once or twice daily. At the end of this period, the animals were euthanized and their colons were collected for further analysis. Among the parameters analyzed were the length of the colon starting from the anus to the top of the cecum, the consistency of any stools found within the colon, and the gross macroscopic appearance of the colon. The distal colon between the 1st and the 4th centimeter was removed and placed in 10% neutral buffered formalin for later histological analysis. For the following parameters, colon length, stool consistency and appearance, and macroscopic damage a scoring system is used to describe the changes. […] Thus, […] Histological analyses of tissues consisted of staining paraffin-embedded tissue sections with hematoxylin-eosin dye. Epithelial damage scores were determined as the fraction of the tissue section showing damaged epithelium. […] Statistical analysis performed in Graphpad Prism 4.0 using ANOVA with Dunnet's or Bonferroni's multiple comparison's test.

Setting [1] is: 10 mg/kg sc bid, C57 Black/6 mice.
[2] abbreviates: 30 mg/kg sc bid, C57 Black/6 mice.

Regarding `COc1cnn(C)c(=O)c1-c1ccc(C[C@H](NC(=O)c2c(Cl)cccc2Cl)C(=O)O)cc1` [Cpd 17], the results for the “Lymphoycte Counts % of Vehicle Control” value with circulating leukocytes (3 mg/kg sc), in the assay on circulating leukocytes (10 mg/kg sc) and with circulating leukocytes (30 mg/kg sc) were 145.3%, 191.7% and 220.2%, respectively. In addition, the “Total Leukocyte Count % of Vehicle Control” value is 143.3% in the assay on circulating leukocytes (3 mg/kg sc), 198.7% with circulating leukocytes (10 mg/kg sc) and 264.5% with circulating leukocytes (30 mg/kg sc). Besides, the “% Inhibition of Epithelial Damage Score” value in the assay on DSS induced colitis (3 mg/kg sc bid, balb/c mice) came out at 61.11%; in the assay with DSS induced colitis (setting [1]) it was 33.3%; with DSS induced colitis (10 mg/kg sc bid, balb/c mice), 56.3%; in the assay on DSS induced colitis (setting [2]), 50%; with DSS induced colitis (30 mg/kg sc bid, balb/c mice), 78.1%. Also, the “% Inhibition of Total Macroscopic Score” value with DSS induced colitis (3 mg/kg sc bid, balb/c mice) was 32.95%; in the assay with DSS induced colitis (setting [1]), −7.2%; in the assay on DSS induced colitis (10 mg/kg sc bid, balb/c mice), 30.6%; in the assay on DSS induced colitis (setting [2]) it was 11.2%; in the assay on DSS induced colitis (30 mg/kg sc bid, balb/c mice) it was −32.8%.

Take `COc1cnn(CCO)c(=O)c1-c1ccc(C[C@H](NC(=O)OC(C)(C)C)C(=O)O)cc1` [Cpd 120]: the entries for the “Lymphoycte Counts % of Vehicle Control” value in the assay on circulating leukocytes (3 mg/kg sc), with circulating leukocytes (10 mg/kg sc) and with circulating leukocytes (30 mg/kg sc) were 104.3%, 112.8% and 80.0%, respectively. The entries for the “Total Leukocyte Count % of Vehicle Control” value in the assay with circulating leukocytes (3 mg/kg sc), with circulating leukocytes (10 mg/kg sc) and in the assay on circulating leukocytes (30 mg/kg sc) were 91.8%, 101.7% and 78.0%, respectively.

Source of the values: patent publication US20050192279A1, “Pyridazinones as antagonists of alpha4 integrins” (priority 2004, published 2005).
